Read-outs that look alike come from different tables or passages of the source.
What was measured:
PAE UFR48 [1] = experiment: MIC, broth microdilution (CLSI), substance alone or ATB combined with compound at 4 or 8 μg/mL; format: cell-based, P. aeruginosa; conditions: Pseudomonas aeruginosa, antibiotic alone; PAE UFR48; read-out: MIC ATB alone
Outline: (§1)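 Antibiotic MICs were determined in presence of fixed compound at 4 or 8 μg/mL, and compound MICs alone, by visual growth inhibition. Inoculum 5·10^5 CFU/mL in ca-MHB, incubated 35 °C for 16-20 h per CLSI-M7-A7. Glucose-6-phosphate (25 μg/ml) added when fosfomycin was tested.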

PAE UFR90 [2] = experiment: as above; format: cell-based, P. aeruginosa; conditions: PAE UFR90
Outline: as §1

PAE 105250 = experiment: as above; format: cell-based, P. aeruginosa; conditions: Pseudomonas aeruginosa; antibiotic alone; PAE 105250; read-out: MIC ATB alone
Outline: as §1

KPN 6299 = experiment: as above; format: cell-based, K. pneumoniae; conditions: Klebsiella pneumoniae, antibiotic alone, read-out: MIC ATB alone
Outline: as §1

KPN UFR42 = experiment: as above; format: cell-based, K. pneumoniae; conditions: Klebsiella pneumoniae; antibiotic alone; KPN UFR42; read-out: MIC ATB alone
Outline: as §1

KPN UFR68 = experiment: as above; format: cell-based, K. pneumoniae; conditions: Klebsiella pneumoniae, substance alone
Outline: as §1

KPN BAA-1898 = experiment: as above; format: cell-based, K. pneumoniae; conditions: Klebsiella pneumoniae, BAA1898, KPN BAA-1898
Outline: as §1

PAE 27853 = format: cell-based, P. aeruginosa; conditions: tntbc: Too numerous to be counted
Protocol: (§2) Method 4: Determination of the Spontaneous Mutation Frequency of the Compounds Alone and Combined with Antibiotics.
(§3) Bacterial isolates (Table 3) were grown overnight at 35° C. on TSA plates (Becton-Dickinson and Company) in ambient air. After 24 h of incubation, isolated bacterial colonies were added to cation-adjusted Mueller-Hinton broth (ca-MHB; Becton-Dickinson and Company) and cultured for approximately 6 h at 35° C. The pre-culture was stopped once bacteria have reached an OD600 nm of 0.5 for 200 μL. The bacterial suspension was centrifuged at 4000 rpm for 20 min. The supernatant was then discarded and the bacterial pellet was dissolved in ca-MHB to obtain 10^9 to 10^10 CFU/mL. Assays including Fosfomycin were supplemented with 25 μg/ml of Glucose-6-phosphate. 100 μL of the adjusted bacterial suspension were spread on agar plates containing different concentrations of the compounds of the present invention alone or combined with an antibacterial (Table 1). The plates were incubated for 24-48 h at 35° C. in ambient air. CFU were numerated on each agar plate containing compound. The number of resistant colonies obtained was divided by the starting inoculum to give the frequency of spontaneous resistance for a given incubation time (24 and 48 h).

PAE UFR48 [3] = format: cell-based, P. aeruginosa; conditions: tntbc: Too numerous to be counted
Protocol: as §2, §3

PAE UFR90 [4] = format: cell-based, P. aeruginosa; conditions: tntbc: Too numerous to be counted
Protocol: as §2, §3

SPN 49619 = experiment: MIC, broth microdilution (CLSI), substance alone or ATB combined with compound at 4 or 8 μg/mL; format: cell-based, S. pneumoniae; conditions: Streptococcus pneumoniae, SPN 49619
Outline: as §1

ECO UFR39 = experiment: as above; format: cell-based, E. coli; conditions: Escherichia coli, ECO UFR39
Outline: as §1

ECO 190317 = experiment: as above; format: cell-based, E. coli; conditions: Escherichia coli, ECO 190317
Outline: as §1

SAU 29213 = experiment: as above; format: cell-based, S. aureus; conditions: Staphylococcus aureus
Outline: as §1

ECL P99 = experiment: as above; format: cell-based, E. cloacae; conditions: Enterobacter cloacae, ECL P99
Outline: as §1

[5] = antibiotic alone, read-out: MIC ATB alone

SMILES: C[C@@H]1O[C@@H]1P(=O)(O)O [FOS, Fosfomycin, reference compound]
- MIC (PAE UFR48 [1]): 16 µg/mL
- MIC (PAE UFR90 [2]; Pseudomonas aeruginosa, antibiotic alone, read-out: MIC ATB alone): 8 µg/mL
- MIC (PAE UFR90 [2]; Pseudomonas aeruginosa, substance alone, read-out: MIC): 16 µg/mL
- MIC (PAE UFR90 [2]; substance alone): 8 µg/mL
- MIC (PAE 105250): 256 µg/mL
- MIC (KPN 6299): > 128 µg/mL
- MIC (KPN UFR42): 128 µg/mL
- MIC (KPN UFR68): 32 µg/mL
- MIC (KPN BAA-1898; [5]): 64 µg/mL
- MIC (KPN BAA-1898; substance alone, read-out: MIC): 64 µg/mL
- Frequency of spontaneous resistance (PAE 27853; single agent at 4.MIC): 1.2E−06
- Frequency of spontaneous resistance (PAE 27853; single agent at 8.MIC): 1.4E−06
- Frequency of spontaneous resistance (PAE UFR48 [3]; single agent at 4.MIC): 1.1E−06
- Frequency of spontaneous resistance (PAE UFR48 [3]; single agent at 8.MIC): 1.1E−06
- Frequency of spontaneous resistance (PAE UFR90 [4]; single agent at 4.MIC): 3.0E−07
- Frequency of spontaneous resistance (PAE UFR90 [4]; single agent at 8.MIC): 2.0E−07
- MIC (SPN 49619; [5]): 32 µg/mL
- MIC (SPN 49619; substance alone, read-out: MIC): 32 µg/mL
- MIC (ECO UFR39; [5]): 4 µg/mL
- MIC (ECO UFR39; substance alone, read-out: MIC): 4 µg/mL
- MIC (ECO 190317; [5]): 0.5 µg/mL
- MIC (ECO 190317; substance alone, read-out: MIC): 0.5 µg/mL
- MIC (SAU 29213; antibiotic alone, SAU 29213, read-out: MIC ATB alone): 2 µg/mL
- MIC (SAU 29213; substance alone, SAU 29213 (MSSA 29213), read-out: MIC): 2 µg/mL
- MIC (ECL P99; [5]): > 1020 µg/mL
- MIC (ECL P99; substance alone, read-out: MIC): > 1020 µg/mL

Source: patent US20200024278A1, “COMPOSITION COMPRISING ANTIBIOTIC COMPOUND AND AN HETEROCYCLIC COMPOUND AND THEIR USE IN PREVENTING OR TREATING BACTERIAL INFECTIONS” (MUTABILIS, priority 2016, published 2020)
